Assay: molar heat capacity at constant pressure
Conditions: Liquid, Flow calorimetry

C1C[C@@H]2[C@H]3CC[C@H](C3)[C@@H]2C1 [exo-tetrahydrodicyclopentadiene]
Conditions | molar heat capacity at constant pressure [J/K/mol]
323.34 K, 100 kPa | 219.49
323.34 K, 4000 kPa | 218.3
323.34 K, 5020 kPa | 218.14
323.35 K, 3070 kPa | 218.8
323.35 K, 6080 kPa | 217.34
323.37 K, 1030 kPa | 219.39
323.37 K, 2050 kPa | 218.99
333.16 K, 3990 kPa | 223.29
333.17 K, 5040 kPa | 223.42
333.17 K, 5990 kPa | 223.32
333.2 K, 100 kPa | 224.4
333.2 K, 1070 kPa | 224.39
333.2 K, 3000 kPa | 223.84
333.21 K, 2020 kPa | 224.41
343.01 K, 100 kPa | 230.29
343.03 K, 1090 kPa | 230.02
343.06 K, 2070 kPa | 229.6
343.06 K, 3060 kPa | 229
343.09 K, 4000 kPa | 229.5
343.09 K, 5030 kPa | 228.72
343.09 K, 6000 kPa | 229.08
353.59 K, 100 kPa | 234.98
353.59 K, 4080 kPa | 234.11
353.59 K, 5070 kPa | 234.17
353.6 K, 6090 kPa | 233.83
353.61 K, 1080 kPa | 234.61
353.61 K, 2010 kPa | 234.35
353.62 K, 3070 kPa | 234.12
363.48 K, 100 kPa | 240.37
363.53 K, 1070 kPa | 240.28
363.53 K, 2030 kPa | 240.09
363.53 K, 2990 kPa | 239.97
363.54 K, 4080 kPa | 239.88
363.54 K, 5000 kPa | 239.76
363.55 K, 6020 kPa | 239.67
383.58 K, 3060 kPa | 248.68
383.58 K, 4010 kPa | 248.49
383.59 K, 5070 kPa | 248.39
383.6 K, 100 kPa | 249.31
383.6 K, 1000 kPa | 248.82
383.6 K, 5990 kPa | 248.35
383.61 K, 2020 kPa | 248.8
403.36 K, 100 kPa | 260.34
403.36 K, 1020 kPa | 259.74
403.37 K, 2060 kPa | 259.23
403.38 K, 3040 kPa | 258.89
403.38 K, 4010 kPa | 257.41
403.39 K, 5000 kPa | 256.93
403.4 K, 6070 kPa | 256.62
423.2 K, 1020 kPa | 271.44
423.2 K, 2050 kPa | 270.28
423.2 K, 3010 kPa | 268.73
423.21 K, 100 kPa | 271.95
423.25 K, 4020 kPa | 267.73
423.26 K, 4980 kPa | 267.54
423.27 K, 6000 kPa | 266.96
443.11 K, 3110 kPa | 282.78
443.13 K, 2050 kPa | 283.43
443.14 K, 1030 kPa | 284.05
443.15 K, 240 kPa | 284.8
443.17 K, 4060 kPa | 282.05
443.18 K, 6050 kPa | 280.75
443.19 K, 5030 kPa | 281.38
463.16 K, 2040 kPa | 298.88
463.17 K, 230 kPa | 301.77
463.18 K, 1060 kPa | 300.31
463.19 K, 4070 kPa | 297.53
463.2 K, 3000 kPa | 299.41
463.21 K, 5010 kPa | 297.44
463.22 K, 6020 kPa | 296.56
483.31 K, 2050 kPa | 316.76
483.32 K, 3040 kPa | 315.54
483.37 K, 4030 kPa | 315.19
483.37 K, 6060 kPa | 314.11
483.38 K, 5080 kPa | 314.31
483.39 K, 1020 kPa | 319.24
483.42 K, 470 kPa | 321.27
503.28 K, 1020 kPa | 336.59
503.28 K, 2040 kPa | 334.35
503.28 K, 3050 kPa | 333.03
503.29 K, 4090 kPa | 330.6
503.29 K, 5070 kPa | 331.61
503.3 K, 480 kPa | 338.7
503.3 K, 6000 kPa | 331.5
523.44 K, 3010 kPa | 348.07
523.45 K, 1030 kPa | 352.98
523.45 K, 2060 kPa | 350.7
523.47 K, 500 kPa | 355.43
523.49 K, 5040 kPa | 345.42
523.49 K, 6180 kPa | 344.08
523.5 K, 4000 kPa | 346.42

— the NIST ThermoML archive (doi:10.1016/j.fluid.2016.11.031)
